Values after ≈ are worked out from the molar mass of the structure shown. Like-named read-outs stand apart in the source and are kept apart here.
Columns and labels:
[1] = Lipophilicity determination by HPLC; assay type: physicochemical; conditions: for log D6.5: HPLC C18, MeOH 72%/acetate-buffered saline pH 6.5 28%; for log D7.4: HPLC C18, MeOH 72%/acetate-buffered saline pH 7.4 28%; for log k: logarithm of capacity factor, HPLC C18, MeOH 72%/H2O 28%
Source text: . A chromatographic column Symmetry® C18 5 μm, 4.6 × 250 mm, Part No. W21751W016 (Waters Corp, Milford, MA, USA) was used. The HPLC separation process was monitored by ChemStation for LC 3D systems (Agilent Technologies). Isocratic elution by a mixture of MeOH (HPLC grade, 72%) and H2O-HPLC Mili-Q grade (28%) as a mobile phase was used for the determination of capacity factor k. Isocratic elution by a mixture of MeOH (HPLC grade, 72%) and acetate-buffered saline (pH 7.4 and pH 6.5) (28%) as a mobile phase was used for the determination of distribution coefficient expressed as D7.4 and D6.5. The total flow of the column was 1.0 mL/min, injection was 20 μL, column temperature was 40 °C, and sample temperature was 10 °C. The detection wavelength of 210 nm was chosen. A KI methanolic solution was used for the determination of the dead times (tD). Retention times (tR) were measured in minutes. The capacity factors k were calculated according to the formula k = (tR − tD)/tD, where tR is the retention time of the solute, and tD is the dead time obtained using an unretained analyte. The distribution coefficients DpH were calculated according to the formula DpH = (tR − tD)/tD. Each experiment was repeated three times.

M. smegmatis ATCC 700084 = experiment: In vitro antimycobacterial evaluation, MIC (broth dilution micro-method); assay type: cell-based, Mycobacterium smegmatis; conditions: Mycolicibacterium smegmatis
Procedure: For M. smegmatis, the broth dilution micro-method in Middlebrook 7H9 medium (Difco) supplemented with ADC Enrichment (Difco) was used. […] Bacterial inocula were prepared by transferring colonies from culture to sterile water. The cell density was adjusted to 0.5 McFarland units using a densitometer (Densi-La-Meter, LIAP, Riga, Latvia). The final inoculum was made by 1:1000 dilution of the suspension with sterile water. Drug-free controls, sterility controls, and controls consisting of medium and DMSO alone were included. The determination of results was performed visually after three days of static incubation in the darkness at 37 °C in an aerobic atmosphere.

[2] = test system: human monocytic leukemia cell line THP-1; experiment: In vitro cell viability analysis (CCK-8); assay type: cell-based; conditions: ± SD, n = 6, medium with 10% FBS, 24 h
Procedure: Human monocytic leukemia THP-1 cells obtained from the European Collection of Cell Cultures (ECACC, Salisbury, UK) were used for in vitro antiproliferative assays. They were routinely cultured in Roswell Park Memorial Institute RPMI 1640 medium supplemented with 10% fetal bovine serum (FBS), 2% L-glutamine, 1% penicillin, and streptomycin (all from Sigma-Aldrich) at 37 °C with 5% CO2. The cells were incubated in a complete medium (i.e., containing FBS) with test compounds at 37 °C with 5% CO2 for 24 h, similarly as we described previously. The effect of the test compounds dissolved in DMSO on cell viability was determined using a Cell Counting Kit-8 (CCK-8; Sigma) according to the manufacturer’s instructions.

[3] = test system: Mycobacterium tuberculosis H37Ra/ATCC 25177; experiment: In vitro antimycobacterial evaluation, MIC (alamarBlue); conditions: MT
[4] = test system: Staphylococcus aureus ATCC 29213; experiment: In vitro antibacterial evaluation, MIC by microtitration broth method
[5] = test system: methicillin-resistant S. aureus SA 3202; experiment: as above; conditions: Staphylococcus aureus
[6] = test system: methicillin-resistant S. aureus SA 630; experiment: as above; conditions: Staphylococcus aureus
[7] = test system: methicillin-resistant S. aureus 63718; experiment: as above; conditions: Staphylococcus aureus
[8] = test system: Enterococcus faecalis ATCC 29212; experiment: as above
[9] = test system: vancomycin-resistant E. faecalis VRE 342B; experiment: as above; conditions: Enterococcus faecalis
[10] = test system: vancomycin-resistant E. faecalis VRE 368; experiment: as above; conditions: Enterococcus faecalis
[11] = test system: vancomycin-resistant E. faecalis VRE 725B; experiment: as above; conditions: Enterococcus faecalis
[12] = test system: Staphylococcus aureus ATCC 29213; experiment: Determination of minimum bactericidal concentrations (agar aliquot subculture); conditions: ATCC29213
[13] = test system: methicillin-resistant S. aureus SA 3202; experiment: as above; conditions: Staphylococcus aureus
[14] = test system: methicillin-resistant S. aureus SA 630; experiment: as above; conditions: Staphylococcus aureus
[15] = test system: methicillin-resistant S. aureus 63718; experiment: as above; conditions: Staphylococcus aureus
[16] = ATCC700084, 72 h, MS, three days, 37 °C, read-out: MIC

| SMILES | log D6.5 [1] | log D7.4 [1] | log k [1] | MIC (M. smegmatis ATCC 700084; ATCC700084) [µg/mL] | IC50 [2] [µM] | MIC ([3]; Table S2) [µg/mL] | MIC ([4]; ATCC29213) [µg/mL] | MIC [5] [µg/mL] | MIC [6] [µg/mL] | MIC [7] [µg/mL] | MIC (M. smegmatis ATCC 700084; [16]) [µg/mL] | MIC ([3]; 14 days, 37 °C) | MIC ([4]; ATCC29213, 24 h) | MIC ([5]; 24 h) | MIC ([6]; 24 h) | MIC ([7]; 24 h) | MIC ([8]; ATCC29212, 24 h) [µg/mL] | MIC ([9]; 24 h) [µg/mL] | MIC ([10]; 24 h) [µg/mL] | MIC ([11]; 24 h) [µg/mL] | further results |
| --- | --- | --- | --- | --- | --- | --- | --- | --- | --- | --- | --- | --- | --- | --- | --- | --- | --- | --- | --- | --- | --- |
| O=C(N[C@@H](CC1CCCCC1)C(=O)Nc1ccc(C(F)(F)F)cc1)c1cc(Cl)ccc1OCc1ccccc1 [2g, 2-(Benzyloxy)-5-chloro-N-[(2S)-3-cyclohexyl-1-oxo-1-{[4-(trifluoromethyl)phenyl]amino}propan-2-yl]benzamide] | 1.767 | 1.746 | 1.820 | > 256 | > 10 | > 256 | > 256 | > 256 | > 256 | > 256 |  |  |  |  |  |  |  |  |  |  | MIC ([8]; ATCC29212): > 256 µg/mL; MIC [9]: > 256 µg/mL; MIC [10]: > 256 µg/mL; MIC [11]: > 256 µg/mL |
| O=C(N[C@@H](Cc1ccccc1)C(=O)Nc1ccc(C(F)(F)F)cc1)c1cc(Cl)ccc1OCc1ccccc1 [2h] | 1.889 | 1.871 | 1.852 | > 256 | > 10 | > 256 | > 256 | > 256 | > 256 | > 256 |  |  |  |  |  |  |  |  |  |  | MIC ([8]; ATCC29212): > 256 µg/mL; MIC [9]: > 256 µg/mL; MIC [10]: > 256 µg/mL; MIC [11]: > 256 µg/mL |
| C[C@H](NC(=O)c1cc(Cl)ccc1O)C(=O)Nc1ccc(C(F)(F)F)cc1 [3a, 5-Chloro-2-hydroxy-N-[(2S)-1-oxo-1-{[4-(trifluoromethyl)phenyl]amino}propan-2-yl]benzamide] | 0.804 | 0.759 | 0.866 |  | > 10 |  |  |  |  |  | > 256 | n.a. n.d. (n.a. = no activity (MIC > 256 µg/mL)) | > 256 µg/mL | > 256 µg/mL | > 256 µg/mL | > 256 µg/mL | > 256 | > 256 | > 256 | > 256 | averaged lipophilicity value of log k/log D6.5/log D7.4 ([1]; average of the three experimental descriptors): 0.81 ± 0.05 |
| CCC[C@H](NC(=O)c1cc(Cl)ccc1O)C(=O)Nc1ccc(C(F)(F)F)cc1 [3b, 5-Chloro-2-hydroxy-N-[(2S)-1-oxo-1-{[4-(trifluoromethyl)phenyl]amino}pentan-2-yl]benzamide] | 1.060 | 1.016 | 1.141 |  | 7.3 ± 1.2 |  |  |  |  |  | > 256 | n.a. n.d. (n.a. = no activity (MIC > 256 µg/mL)) | > 256 µg/mL | > 256 µg/mL | > 256 µg/mL | > 256 µg/mL | > 256 | > 256 | > 256 | > 256 |  |
| CCCC[C@H](NC(=O)c1cc(Cl)ccc1O)C(=O)Nc1ccc(C(F)(F)F)cc1 [3d, 5-Chloro-2-hydroxy-N-[(2S)-1-oxo-1-{[4-(trifluoromethyl)phenyl]amino}hexan-2-yl]benzamide] | 1.247 | 1.213 | 1.322 |  | 4.5 ± 1.2 |  |  |  |  |  | > 256 | n.a. n.d. (n.a. = no activity (MIC > 256 µg/mL)) | 0.583 µM | 2.33 µM | 2.33 µM | 4.66 µM | > 256 | > 256 | > 256 | > 256 | MBC [12]: 1.17 µM (≈ 0.502 µg/mL); MBC [13]: 2.33 µM (≈ 0.999 µg/mL); MBC [14]: 4.66 µM (≈ 2 µg/mL); MBC [15]: 4.66 µM (≈ 2 µg/mL) |
| CC(C)C[C@H](NC(=O)c1cc(Cl)ccc1OCc1ccccc1)C(=O)N[C@@H](Cc1ccccc1)C(=O)Nc1ccc(C(F)(F)F)cc1 [5a] | 1.998 | 2.031 | 2.053 | > 256 | > 10 | > 256 | > 256 | > 256 | > 256 | > 256 |  |  |  |  |  |  |  |  |  |  | MIC ([8]; ATCC29212): > 256 µg/mL; MIC [9]: > 256 µg/mL; MIC [10]: > 256 µg/mL; MIC [11]: > 256 µg/mL |
| CC(C)C[C@H](NC(=O)[C@H](Cc1ccccc1)NC(=O)c1cc(Cl)ccc1OCc1ccccc1)C(=O)Nc1ccc(C(F)(F)F)cc1 [5b] | 1.994 | 2.027 | 2.049 | > 256 | > 10 | > 256 | > 256 | > 256 | > 256 | > 256 |  |  |  |  |  |  |  |  |  |  | MIC ([8]; ATCC29212): > 256 µg/mL; MIC [9]: > 256 µg/mL; MIC [10]: > 256 µg/mL; MIC [11]: > 256 µg/mL |
| O=C(N[C@@H](Cc1ccccc1)C(=O)N[C@@H](Cc1ccccc1)C(=O)Nc1ccc(C(F)(F)F)cc1)c1cc(Cl)ccc1OCc1ccccc1 [5c] | 2.062 | 2.096 | 2.119 | > 256 | > 10 | > 256 | > 256 | > 256 | > 256 | > 256 |  |  |  |  |  |  |  |  |  |  | MIC ([8]; ATCC29212): > 256 µg/mL; MIC [9]: > 256 µg/mL; MIC [10]: > 256 µg/mL; MIC [11]: > 256 µg/mL |
| CC(C)C[C@H](NC(=O)c1cc(Cl)ccc1O)C(=O)N[C@@H](Cc1ccccc1)C(=O)Nc1ccc(C(F)(F)F)cc1 [6a] | 1.510 | 1.493 | 1.560 |  | 2.2 ± 1.1 |  |  |  |  |  | > 256 | n.a. n.d. (n.a. = no activity (MIC > 256 µg/mL)) | 222 µM | 444 µM | 444 µM | 444 µM | > 256 | > 256 | > 256 | > 256 |  |
| CC(C)C[C@H](NC(=O)[C@H](Cc1ccccc1)NC(=O)c1cc(Cl)ccc1O)C(=O)Nc1ccc(C(F)(F)F)cc1 [6b] | 1.528 | 1.453 | 1.547 |  | 1.6 ± 1 |  |  |  |  |  | > 256 | n.a. n.d. (n.a. = no activity (MIC > 256 µg/mL)) | 55.6 µM | 55.6 µM | 55.6 µM | 444 µM | > 256 | > 256 | > 256 | > 256 | MBC [12]: 112 µM (≈ 64.5 µg/mL); MBC [14]: 444 µM (≈ 256 µg/mL) |
| O=C(N[C@@H](Cc1ccccc1)C(=O)N[C@@H](Cc1ccccc1)C(=O)Nc1ccc(C(F)(F)F)cc1)c1cc(Cl)ccc1O [6c] | 1.548 | 1.495 | 1.587 |  | 1.3 ± 1.1 |  |  |  |  |  | > 256 | n.a. n.d. (n.a. = no activity (MIC > 256 µg/mL)) | > 256 µg/mL | > 256 µg/mL | > 256 µg/mL | > 256 µg/mL | > 256 | > 256 | > 256 | > 256 |  |

Reference: paper PMC9569995, “Study of Biological Activities and ADMET-Related Properties of Salicylanilide-Based Peptidomimetics” (International Journal of Molecular Sciences, 2022)
